Measurements as given in patent EP0672658B1, “Antithrombotic agents” (priority 1994, dated 1995).
Where a name gives a salt, the structure may show the parent alone.

Columns and labels:
[1] = target: Human Thrombin (Homo sapiens, UniProt P00734); assay: biochemical; settings: read-out: Kass Human Thrombin (converted)
[2] = system: human or animal plasma; assay: Anticoagulation determination in plasma: prothrombin time (PT); assay type: biochemical; settings: concentration doubling prothrombin time
Description: (§1) Dog plasma and rat plasma is obtained from conscious mixed-breed hounds (either sex, Hazelton-LRE, Kalamazoo, Michigan, U.S.A.) or from anesthetized male Sprague-Dawley rats (Harlan Sprague-Dawley, Inc., Indianapolis, Indiana, U.S.A.) by venipuncture into 3.8 percent citrate. Fibrinogen is prepared from in-date ACD human blood as the fraction I-2 according to previous procedures and specifications. Smith, Biochem. J., 185, 1-11 (1980); and Smith, et al., Biochemistry, 11, 2958-2967 (1972). Human fibrinogen is also purchased as 98 percent pure/plasmin free from American Diagnostica, Greenwich, Connecticut. Coagulation reagents ACTIN, Thromboplastin, and Human plasma are from Baxter Healthcare Corp., Dade Division, Miami, Florida. Bovine thrombin from Parke-Davis (Ann Detroit, Michigan) is used for coagulation assays in plasma.
(§2) Coagulation assay procedures are as previously described. Smith, et al., Thrombosis Research, 50, 163-174 (1988). A CoAScreener coagulation instrument (American LABor, Inc.) is used for all coagulation assay measurements. The prothrombin time (PT) is measured by adding 0.05 mL saline and 0.05 mL Thromboplastin-C reagent to 0.05 mL test plasma. The activated partial thromboplastin time (APTT) is measured by incubation of 0.05 mL test plasma with 0.05 mL Actin reagent for 120 seconds followed by 0.05 mL CaCl2 (0.02 M). The thrombin time (TT) is measured by adding 0.05 mL saline and 0.05 mL thrombin (10 NIH units/mL) to 0.05 mL test plasma. The compounds of Formula I are added to human or animal plasma over a wide range of concentrations to determine prolongation effects on the APTT, PT, and TT assays. Linear extrapolations are performed to estimate the concentrations required to double the clotting time for each assay.

[3] = system: human or animal plasma; assay: Anticoagulation determination in plasma: thrombin time (TT); assay type: biochemical; settings: concentration doubling thrombin time
Description: as §1, §2

[4] = target: T1, Trypsin (Bos taurus, UniProt P00760); assay: biochemical; design: species or system Bovine; settings: read-out: Kass Trypsin (converted)
T1 sequence (P00760 24-246): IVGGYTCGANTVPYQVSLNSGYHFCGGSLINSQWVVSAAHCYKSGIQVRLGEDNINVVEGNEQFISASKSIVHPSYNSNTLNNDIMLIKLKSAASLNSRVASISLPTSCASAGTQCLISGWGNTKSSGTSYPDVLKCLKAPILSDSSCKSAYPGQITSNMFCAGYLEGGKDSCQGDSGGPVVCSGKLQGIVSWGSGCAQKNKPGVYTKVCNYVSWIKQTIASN
Description: By substantially following the procedures described above for human thrombin, and using other human blood coagulation system serine proteases and proteases of the fibrinolytic system with the appropriate chromogenic substrates, identified below, selectivity of the compounds of the present invention with respect to the coagulation factor serine proteases and with respect to the fibrinolytic system serine proteases are evaluated as well as their substantial lack of interference with serine proteases of the fibrinolytic system. Thrombin inhibitors preferably should spare fibrinolysis induced by urokinase, tissue plasminogen activator (t-PA) and streptokinase. This would be important to the therapeutic use of such agents as an adjunct to streptokinase, t-PA or urokinase thrombolytic therapy and to the use of such agents as an endogenous fibrinolysis-sparing (with respect to t-PA and urokinase) antithrombotic agent. In addition to the lack of interference with the amidase activity of the fibrinolytic proteases, such fibrinolytic system sparing can be studied by the use of human plasma clots and their lysis by the respective fibrinolytic plasminogen activators.
Human factors X, Xa, IXa, XIa, and XIIa are purchased from Enzyme Research Laboratories, South Bend, Indiana; human urokinase from Leo Pharmaceuticals, Denmark; and recombinant activated Protein C (aPC) is prepared at Eli Lilly and Co. substantially according to U.S. Patent 4,981,952. Chromogenic substrates: N-Benzoyl-Ile-Glu-Gly-Arg-p-nitroanilide (for factor Xa); N-Cbz-D-Arg-Gly-Arg-p-nitroanilide (for factor IXa assay as the factor Xa substrate); Pyroglutamyl-Pro-Arg-p-nitroanilide (for Factor XIa and for aPC); H-D-Pro-Phe-Arg-p-nitroanilide (for factor XIIa); and Pyroglutamyl-Gly-Arg-p-nitroanilide (for urokinase); are purchased from KabiVitrum, Stockholm, Sweden, or from Midwest Biotech, Fishers, Indiana. Bovine trypsin is purchased from Worthington Biochemicals, Freehold, New Jersey, and human plasma kallikrein from Kabi Vitrum, Stockholm, Sweden. Chromogenic substrate H-D-Pro-Phe-Arg-p-nitroanilide for plasma kallikrein is purchased from Kabi Vitrum, Stockholm, Sweden. N-Benzoyl-Phe-Val-Arg-p-nitroanilide, the substrate for human thrombin and for trypsin, is synthesized according to procedures described above for the compounds of the present invention, using known methods of peptide coupling from commercially available reactants or purchased from Midwest Biotech, Fishers, Indiana.

[5] = system: human or animal plasma; assay: Anticoagulation determination in plasma: activated partial thromboplastin time (APTT); assay type: biochemical; settings: concentration doubling activated partial thromboplastin time
Description: as §1, §2

| Kd [1] [nM] | Kd [4] [nM] | SMILES | Human Plasma Anticoagulation 2x Clotting time (ng/mL) PT [2] | Human Plasma Anticoagulation 2x Clotting time (ng/mL) TT [3] | Human Plasma Anticoagulation 2x Clotting time (ng/mL) APTT [5] |
| --- | --- | --- | --- | --- | --- |
| 50000 | > 111000 | CCS(=O)(=O)N[C@H](Cc1ccccc1)C(=O)N1CCC[C@H]1C(=O)NCCc1cccc(NC(=N)N)c1 [Example 37, EtSO2-D-Phe-Pro-m-NHCH2CH2C6H4NHC(NH)NH2·HCl] | >9,000 ng/mL | >9,000 ng/mL | >9,000 ng/mL |
| 132 | – | Nc1ccc(CNC(=O)[C@@H]2CCCN2C(=O)[C@@H](CC2CCCCC2)NCC(=O)O)cc1 [Example 62, HO2CCH2-D-Cha-Pro-4-NHCH2C6H4NH2·HCl] | – | 54 ng/mL | – |
| 3230 | – | Nc1ccc(CCNC(=O)[C@@H]2CCCN2C(=O)[C@@H](CC2CCCCC2)NCC(=O)O)cc1 [Example 63, HO2CCH2-D-Cha-Pro-4-NHCH2CH2C6H4NH2·HCl] | – | 680 ng/mL | – |
| – | 1.75 | N=C(N)c1ccc(CNC(=O)[C@@H]2CCCN2C(=O)[C@@H](CC2CCCCC2)NCC(=O)O)s1 [Example 65] | – | 1 ng/mL | – |
| 8.33 | 217 | N=C(N)c1ccc(CNC(=O)[C@@H]2CCCN2C(=O)[C@@H](CC2CCCCC2)NCC(=O)O)nc1 [Example 66, HO2CCH2-D-Cha-Pro-2-NHCH2-5-amidinopyridine·HCl] | 270 ng/mL | 7.9 ng/mL | 180 ng/mL |
| 90.9 | – | N=C(N)C1CCC(CNC(=O)[C@@H]2CCCN2C(=O)[C@@H](CC2CCCCC2)NCC(=O)O)NC1 (stereo partly drawn) [Example 67, HO2CCH2-D-Cha-Pro-2-NHCH2-5-amidinopiperidine·HCl] | 1,300 ng/mL | 34. ng/mL | 1,800 ng/mL |
| 1.67 | – | N=C(N)C1=CNC(CNC(=O)[C@@H]2CCCN2C(=O)[C@@H](CC2CCCCC2)NCC(=O)O)CC1 (stereo partly drawn) [Example 68, HO2CCH2-D-Cha-Pro-2-NHCH2-5-amidino-5,6-dehydro-piperidine·HCl] | 190 ng/mL | 4. ng/mL | 49 ng/mL |
| 2.94 | 270 | N=C(N)c1ccc(CNC(=O)[C@@H]2CCCN2C(=O)[C@@H](CC2CCCCC2)NCC(=O)O)nn1 [Example 69, HO2CCH2-D-Cha-Pro-3-NHCH2-6-amidinopyridazine·HCl] | 220 ng/mL | 5. ng/mL | 110 ng/mL |
| 2.33 | 102 | N=C(N)N1CC=C(CNC(=O)[C@@H]2CCCN2C(=O)[C@@H](CC2CCCCC2)NCC(=O)O)CC1 [Example 70, HO2CCH2-D-Cha-Pro-4-NHCH2-1-amidino-3,4-dehydro-piperidine·HCl] | 180 ng/mL | 2 ng/mL | 160 ng/mL |
| 35.7 | – | Nc1cc(CNC(=O)[C@@H]2CCCN2C(=O)[C@@H](CC2CCCCC2)NCC(=O)O)ccn1 [Example 73, HO2CCH2-D-Cha-Pro-4-NHCH2-2-aminopyridine·HCl] | 330 ng/mL | 21 ng/mL | 340 ng/mL |
| 34.5 | – | Nc1ccc(CNC(=O)[C@@H]2CCCN2C(=O)[C@@H](CC2CCCCC2)NCC(=O)O)cn1 [Example 74, HO2CCH2-D-Cha-Pro-5-NHCH2-2-aminopyridine·HCl] | 350 ng/mL | 20 ng/mL | 420 ng/mL |
| 2220 | – | Nc1ccc(CCNC(=O)[C@@H]2CCCN2C(=O)[C@@H](CC2CCCCC2)NCC(=O)O)cn1 [Example 75, HO2CCH2-D-Cha-Pro-5-NHCH2CH2-2-aminopyridine·HCl] | – | – | – |
| 83.3 | 2780 | Nc1cc(CCNC(=O)[C@@H]2CCCN2C(=O)[C@@H](CC2CCCCC2)NCC(=O)O)ccn1 [Example 76, HO2CCH2-D-Cha-Pro-4-NHCH2CH2-2-aminopyridine·HCl] | 560 ng/mL | 29 ng/mL | 490 ng/mL |
| 90.9 | – | Nc1ccc(CNC(=O)[C@@H]2CCCN2C(=O)[C@@H](CC2CCCCC2)NCC(=O)O)cc1F [Example 77, HO2CCH2-D-Cha-Pro-4-NHCH2-2-F-aniline·HCl] | 890 ng/mL | 53 ng/mL | 1,600 ng/mL |
| 90.9 | 116 | NCc1ccc(CNC(=O)[C@@H]2CCCN2C(=O)[C@@H](CC2CCCCC2)NCC(=O)O)cc1 [Example 78, HO2CCH2-D-Cha-Pro-4-NHCH2C6H4CH2NH2·HCl] | 760 ng/mL | 46 ng/mL | 430 ng/mL |
| 500 | 4170 | NCC1CCC(CNC(=O)[C@@H]2CCCN2C(=O)[C@@H](CC2CCCCC2)NCC(=O)O)CC1 (stereo partly drawn) [Example 79, HO2CCH2-D-Cha-Pro-4-NHCH2C6H10CH2NH2·HCl] | 2,400 ng/mL | 140 ng/mL | 1,700 ng/mL |
| 0.588 | 11.1 | CCS(=O)(=O)N[C@H](CC1CCCCC1)C(=O)N1CCC[C@H]1C(=O)NCc1ccc(C(=N)N)cc1 [Example 80, EtSO2-D-Cha-Pro-4-NHCH2C6H4C(NH)NH2·HCl] | 130 ng/mL | 4 ng/mL | 40 ng/mL |
| 189 | 476 | CCS(=O)(=O)N[C@H](CC1CCCCC1)C(=O)N1CCC[C@H]1C(=O)NCc1ccc(CN)cc1 [Example 81, EtSO2-D-Cha-Pro-4-NHCH2C6H4CH2NH2·HCl] | 2,700 ng/mL | 110 ng/mL | 1,500 ng/mL |
| 200 | – | CCS(=O)(=O)N[C@H](CC1CCCCC1)C(=O)N1CCC[C@H]1C(=O)NCc1ccc(N)cc1F [Example 82, EtSO2-D-Cha-Pro-4-NHCH2-3-F-C6H3NH2·HCl] | 3,000 ng/mL | 130 ng/mL | 3,800 ng/mL |
